From PMC7414866, “The Rnf complex is a Na^+ coupled respiratory enzyme in a fermenting bacterium, Thermotoga maritima” (Communications Biology, 2020)

Molecular target: T1, Na+-F1FO ATP synthase (Thermotoga maritima, UniProt O50550+Q9X1U7+Q9X1V0)
T1 construct: gene atpE; native F1FO complex purified with DDM, no tags; 550 kDa on native PAGE; co-purified with Rnf; with ATP synthase gamma chain; ATP synthase subunit delta; ATP synthase epsilon chain; ATP synthase subunit a; ATP synthase subunit b
Assay: ATP hydrolysis (phosphate release) after preincubation
Type: biochemical
Conditions: covalent; preincubation without Na+ 30 min room temperature, then 5 min 80 °C; 3 mM K2-ATP, pH 7.4; competes with Na+

C(=NC1CCCCC1)=NC1CCCCC1 [DCCD]
inhibition: DCCD inhibited ATP hydrolysis but inhibition was relieved by addition of Na^+
